The source of these data is patent publication EP0338372A2, “Solubilized pro-drugs” (AMERICAN CYANAMID COMPANY, priority 1988, dated 1989).

The nature of one data set: solubility. The note with it: 0.1 M phosphate buffer, pH 7.5.
The conditions of data set [1]: pH 7.5.

Like-named read-outs stand apart in the source and are kept apart here.

Turning to `O=C(O)c1cn(C2CC2)c2cc(N3CCN(P(=O)(O)O)CC3)c(F)cc2c1=O` [Example 47, t-Cyclopropyl-6-fluoro-1,4-dihydro-4-oxo-7-(4-phosphono-1-piperazinyl)-3-quinolinecarboxylic Acid], the solubility result in “solubility” is recorded as “soluble”.
`CCOP(=O)(OCC)N1CCN(c2cc3c(cc2F)c(=O)c(C(=O)OCCOC)cn3C2CC2)CC1` [Example 49, 1-Cycfopropyl-7-[4-(diethoxyphosphinyl)-1-piperazinyl]-6-fluoro-1,4-dihydro-4-oxo-3-quinolinecarboxylic Acid, 2-Methoxyethyl Ester]: the solubility result in data set [1] was “easily soluble”.
